# Patent US7034208B1, “Ahas inhibiting herbicide resistant wheat and method for selection thereof” (BASF Aktiengellschaft, priority 1991, dated 2006)
# What was measured:
# [1] = tested on: F2 of intercrosses between wheat selections FS1-FS4; test: Genetic Condition Studies Experiment 5, allelism (Table 3); assay type: in vivo; settings: 200 g/ha, after treatment
# Text: Experiment 5: Crosses and reciprocal crosses are made between the four mutant wheat selections. The F1 seed from these crosses is planted and the plants allowed to self. The F2 seed is harvested and used in this experiment to determine allelism of the four selections. Whole-flats are filled with Metro Mix 350™ and are sown with 100 seeds per cross (four rows with 25 seeds/row). In addition a row of susceptible Fidel is sown in each flat. Three sources from each cross are used. When the seedlings reach the Z12 stage, the flats are sprayed with PURSUIT™ at 200 g/ha. The PURSUIT™ solution is applied as previously described. […]
# [2] = tested on: M3 wheat plants from selections FS1-FS4 and Fidel; test: M3 Plant Screen: In vivo (seed soak/preemergence application screen)
# Description: M3 plants from the four initial plant selections (labelled FS1, FS2, FS3 and FS4) are screened for PURSUIT™ resistance. Five M3 seeds from each mature infloresence of these initial M2 mutants are disinfested in 70% EtOH for 30 seconds followed by disinfestation in 50% solution containing 2.625% sodium hypochlorite (as described above) for 20 minutes under vacuum with gentle agitation provided by a stir plate. The seeds are rinsed two times in sterile distilled water.
# Each set of five seeds is then placed into 10 ml of a 1500 uM solution of PURSUIT™ in a sterile 60×15 mm plastic petri dish and soaked for three days. The seeds are rinsed with water, dried with paper towels and planted approximately ½″ deep in 6×8 inch peat flats containing moist, sterile Metro Mix 350™. These flats are sprayed preemergence with 300 g/ha of PURSUIT™. Controls include M3 seeds from each resistant selection which are disinfested as previously described, soaked in sterile distilled water for three days and then planted. In addition, unselected susceptible Fidel wheat is disinfested as described above and one-half of the seeds treated with PURSUIT™ (seed soak and spray procedure) and the other half are soaked in water alone. The herbicide is applied with a laboratory belt sprayer at a rate of 950 L/ha with a belt speed of 12.5 sec/rev using sprayer nozzle #40015E.
# Four weeks after receiving the initial seed soak, the M3 wheat plants are rated according to whether the plants are herbicide resistant, herbicide damaged or dead. The herbicide resistant plants are transplanted individually to 7.5 inch Azalea pots with Metro Mix 350™. A fertilizer, Osmocote™ (Sierra Company, Milpita, Calif.) is added as a top dressing one week after the plants are transplanted. In addition the plants are fertilized regularly with Peter's 20-20-20™ (Grace Company, Cambridge, Mass.). Individual plants are rated against Fidel untreated controls.
# [3] = tested on: wheat variety Fidel and resistant selections FS2 and FS4; test: Preemergence Herbicide Tolerance; assay type: in vivo; settings: pre-emergence application; plant growth after four weeks; versus Fidel
# [4] = Control 2 = Susceptible wheat seed (Fidel) soaked in herbicide solution, three weeks
# [5] = FS1 M3, 1500 uM seed soak + 300 g/ha preemergence, three weeks after herbicide treatment
# [6] = FS2 M3, 1500 uM seed soak + 300 g/ha preemergence, three weeks after herbicide treatment
# [7] = FS3 M3, 1500 uM seed soak + 300 g/ha preemergence, three weeks after herbicide treatment
# [8] = FS4 M3, 1500 uM seed soak + 300 g/ha preemergence, three weeks after herbicide treatment
smiles,measurement,setting,value
"CCc1cnc(C2=NC(C)(C(C)C)C(=O)N2)c(C(=O)O)c1 (stereo not shown) [PURSUIT, 5-ethyl-2-(4-isopropyl-4-methyl-5-oxo-2-imidazolin-2-yl)-nicotinic acid]",Resist: number of plants resistant,[1]; F2 source (FS1/FS2)X-1,71
same,Suscept: number of plants susceptible,[1]; F2 source (FS1/FS2)X-1,1
same,Resist: number of plants resistant,[1]; F2 source (FS1/FS2)X-2,85
same,Suscept: number of plants susceptible,[1]; F2 source (FS1/FS2)X-2,2
same,Resist: number of plants resistant,[1]; F2 source (FS1/FS2)X-3,74
same,Suscept: number of plants susceptible,[1]; F2 source (FS1/FS2)X-3,1
same,Resist: number of plants resistant,[1]; F2 source (FS1/FS3)X-1,82
same,Suscept: number of plants susceptible,[1]; F2 source (FS1/FS3)X-1,0
same,Resist: number of plants resistant,[1]; F2 source (FS1/FS3)X-2,92
same,Suscept: number of plants susceptible,[1]; F2 source (FS1/FS3)X-2,0
same,Resist: number of plants resistant,[1]; F2 source (FS1/FS3)X-3,93
same,Suscept: number of plants susceptible,[1]; F2 source (FS1/FS3)X-3,0
same,Resist: number of plants resistant,[1]; F2 source (FS1/FS4)X-1,96
same,Suscept: number of plants susceptible,[1]; F2 source (FS1/FS4)X-1,0
same,Resist: number of plants resistant,[1]; F2 source (FS1/FS4)X-2,90
same,Suscept: number of plants susceptible,[1]; F2 source (FS1/FS4)X-2,0
same,Resist: number of plants resistant,[1]; F2 source (FS1/FS4)X-3,93
same,Suscept: number of plants susceptible,[1]; F2 source (FS1/FS4)X-3,2
same,Resist: number of plants resistant,[1]; F2 source (FS2/FS1)X-1,95
same,Suscept: number of plants susceptible,[1]; F2 source (FS2/FS1)X-1,0
same,Resist: number of plants resistant,[1]; F2 source (FS2/FS1)X-2,91
same,Suscept: number of plants susceptible,[1]; F2 source (FS2/FS1)X-2,0
same,Resist: number of plants resistant,[1]; F2 source (FS2/FS1)X-3,97
same,Suscept: number of plants susceptible,[1]; F2 source (FS2/FS1)X-3,0
same,Resist: number of plants resistant,[1]; F2 source (FS2/FS3)X-1,99
same,Suscept: number of plants susceptible,[1]; F2 source (FS2/FS3)X-1,0
same,Resist: number of plants resistant,[1]; F2 source (FS2/FS3)X-2,87
same,Suscept: number of plants susceptible,[1]; F2 source (FS2/FS3)X-2,1
same,Resist: number of plants resistant,[1]; F2 source (FS2/FS3)X-3,92
same,Suscept: number of plants susceptible,[1]; F2 source (FS2/FS3)X-3,0
same,Resist: number of plants resistant,[1]; F2 source (FS2/FS4)X-1,102
same,Suscept: number of plants susceptible,[1]; F2 source (FS2/FS4)X-1,0
same,Resist: number of plants resistant,[1]; F2 source (FS2/FS4)X-2,97
same,Suscept: number of plants susceptible,[1]; F2 source (FS2/FS4)X-2,0
same,Resist: number of plants resistant,[1]; F2 source (FS2/FS4)X-3,97
same,Suscept: number of plants susceptible,[1]; F2 source (FS2/FS4)X-3,1
same,Resist: number of plants resistant,[1]; F2 source (FS3/FS1)X-2,95
same,Suscept: number of plants susceptible,[1]; F2 source (FS3/FS1)X-2,0
same,Resist: number of plants resistant,[1]; F2 source (FS3/FS1)X-3,97
same,Suscept: number of plants susceptible,[1]; F2 source (FS3/FS1)X-3,0
same,Resist: number of plants resistant,[1]; F2 source (FS3/FS1)X-5,94
same,Suscept: number of plants susceptible,[1]; F2 source (FS3/FS1)X-5,1
same,Resist: number of plants resistant,[1]; F2 source (FS3/FS2)X-1,96
same,Suscept: number of plants susceptible,[1]; F2 source (FS3/FS2)X-1,0
same,Resist: number of plants resistant,[1]; F2 source (FS3/FS2)X-2,94
same,Suscept: number of plants susceptible,[1]; F2 source (FS3/FS2)X-2,0
same,Resist: number of plants resistant,[1]; F2 source (FS3/FS2)X-3,96
same,Suscept: number of plants susceptible,[1]; F2 source (FS3/FS2)X-3,0
same,Resist: number of plants resistant,[1]; F2 source (FS3/FS4)X-1,98
same,Suscept: number of plants susceptible,[1]; F2 source (FS3/FS4)X-1,0
same,Resist: number of plants resistant,[1]; F2 source (FS3/FS4)X-2,96
same,Suscept: number of plants susceptible,[1]; F2 source (FS3/FS4)X-2,0
same,Resist: number of plants resistant,[1]; F2 source (FS3/FS4)X-3,96
same,Suscept: number of plants susceptible,[1]; F2 source (FS3/FS4)X-3,0
same,Resist: number of plants resistant,[1]; F2 source (FS4/FS1)X-1,93
same,Suscept: number of plants susceptible,[1]; F2 source (FS4/FS1)X-1,1
same,Resist: number of plants resistant,[1]; F2 source (FS4/FS1)X-2,91
same,Suscept: number of plants susceptible,[1]; F2 source (FS4/FS1)X-2,0
same,Resist: number of plants resistant,[1]; F2 source (FS4/FS1)X-3,94
same,Suscept: number of plants susceptible,[1]; F2 source (FS4/FS1)X-3,1
same,Resist: number of plants resistant,[1]; F2 source (FS4/FS2)X-1,94
same,Suscept: number of plants susceptible,[1]; F2 source (FS4/FS2)X-1,0
same,Resist: number of plants resistant,[1]; F2 source (FS4/FS2)X-2,95
same,Suscept: number of plants susceptible,[1]; F2 source (FS4/FS2)X-2,1
same,Resist: number of plants resistant,[1]; F2 source (FS4/FS2)X-3,95
same,Suscept: number of plants susceptible,[1]; F2 source (FS4/FS2)X-3,0
same,Resist: number of plants resistant,[1]; F2 source (FS4/FS3)X-1,96
same,Suscept: number of plants susceptible,[1]; F2 source (FS4/FS3)X-1,0
same,Resist: number of plants resistant,[1]; F2 source (FS4/FS3)X-2,100
same,Suscept: number of plants susceptible,[1]; F2 source (FS4/FS3)X-2,0
same,Resist: number of plants resistant,[1]; F2 source (FS4/FS3)X-3,94
same,Suscept: number of plants susceptible,[1]; F2 source (FS4/FS3)X-3,0
same,Resist: number of plants resistant,[1]; Total of (FS1/FS2) sources,230
same,Suscept: number of plants susceptible,[1]; Total of (FS1/FS2) sources,4
same,Resist: number of plants resistant,[1]; Total of (FS1/FS3) sources,267
same,Suscept: number of plants susceptible,[1]; Total of (FS1/FS3) sources,0
same,Resist: number of plants resistant,[1]; Total of (FS1/FS4) sources,279
same,Suscept: number of plants susceptible,[1]; Total of (FS1/FS4) sources,2
same,Resist: number of plants resistant,[1]; Total of (FS2/FS1) sources,283
same,Suscept: number of plants susceptible,[1]; Total of (FS2/FS1) sources,0
same,Resist: number of plants resistant,[1]; Total of (FS2/FS3) sources,278
same,Suscept: number of plants susceptible,[1]; Total of (FS2/FS3) sources,1
same,Resist: number of plants resistant,[1]; Total of (FS2/FS4) sources,296
same,Suscept: number of plants susceptible,[1]; Total of (FS2/FS4) sources,1
same,Resist: number of plants resistant,[1]; Total of (FS3/FS1) sources,286
same,Suscept: number of plants susceptible,[1]; Total of (FS3/FS1) sources,1
same,Resist: number of plants resistant,[1]; Total of (FS3/FS2) sources,286
same,Suscept: number of plants susceptible,[1]; Total of (FS3/FS2) sources,0
same,Resist: number of plants resistant,[1]; Total of (FS3/FS4) sources,290
same,Suscept: number of plants susceptible,[1]; Total of (FS3/FS4) sources,0
same,Resist: number of plants resistant,[1]; Total of (FS4/FS1) sources,278
same,Suscept: number of plants susceptible,[1]; Total of (FS4/FS1) sources,2
same,Resist: number of plants resistant,[1]; Total of (FS4/FS2) sources,284
same,Suscept: number of plants susceptible,[1]; Total of (FS4/FS2) sources,1
same,Resist: number of plants resistant,[1]; Total of (FS4/FS3) sources,290
same,Suscept: number of plants susceptible,[1]; Total of (FS4/FS3) sources,0
same,No. of Plants (number of plants raised/number of seeds planted),[2]; Control 2 = Susceptible wheat seed (Fidel) soaked in herbicide solution,13/15
same,Ave. Shoot Height,[2]; [4],21.2 cm
same,Range Shoot Heights,[2]; [4],8-30 cm
same,No. of Plants (number of plants raised/number of seeds planted),"[2]; FS1 M3, 1500 uM seed soak + 300 g/ha preemergence",48/80
same,Ave. Shoot Height,[2]; [5],9.1 cm
same,Range Shoot Heights,[2]; [5],2-15 cm
same,germination frequency,"[2]; FS1 M3 seed, 1500 uM seed soak + 300 g/ha preemergence",60%
same,No. of Plants (number of plants raised/number of seeds planted),"[2]; FS2 M3, 1500 uM seed soak + 300 g/ha preemergence",36/80
same,Ave. Shoot Height,[2]; [6],11.7 cm
same,Range Shoot Heights,[2]; [6],5-18 cm
same,germination frequency,"[2]; FS2 M3 seed, 1500 uM seed soak + 300 g/ha preemergence",47.5%
same,No. of Plants (number of plants raised/number of seeds planted),"[2]; FS3 M3, 1500 uM seed soak + 300 g/ha preemergence",35/85
same,Ave. Shoot Height,[2]; [7],8.0 cm
same,Range Shoot Heights,[2]; [7],1-14.5 cm
same,germination frequency,"[2]; FS3 M3 seed, 1500 uM seed soak + 300 g/ha preemergence",41.2%
same,No. of Plants (number of plants raised/number of seeds planted),"[2]; FS4 M3, 1500 uM seed soak + 300 g/ha preemergence",44/85
same,Ave. Shoot Height,[2]; [8],21.1 cm
same,Range Shoot Heights,[2]; [8],5-28 cm
same,germination frequency,"[2]; FS4 M3 seed, 1500 uM seed soak + 300 g/ha preemergence",55%
same,survival,"[2]; non-mutagenized, non-selected Fidel seed, 1500 uM seed soak and 300 g/ha preemergent",does not survive
same,herbicide symptoms,"[2]; some M3 seedlings, progeny of FS4, 1500 uM seed soak + 300 g/ha preemergence","stunting, twisting and/or chlorotic striping"
same,increased tolerance of FS2 and FS4,[3],approximately 8 fold
